Assay: Human HepG2 cell viability assay in 384 well format
Assay type: toxicity, cell-based
Parameters: dose 125 nL, time 70.5 hour; cytotoxicity at 70.5 h: concentration not given beside the values
Details: HepG2 cells, read-out: Inhibition

`CCCc1cc(NC(=O)c2ccc(Cl)c(N3CCNC3=O)c2)n[nH]1` showed a cytotoxicity at 70.5 h of 11.9%.
In the case of `Cc1cnn(CC2CCCN2C(=O)Cc2c(C)nc(C)[nH]c2=O)c1` (stereo unspecified), the cytotoxicity at 70.5 h is reported as 15.2%.
In the case of `COc1cc(CN2CC[C@H](NC(C)=O)[C@@H](O)CC2)ccc1F`, the cytotoxicity at 70.5 h is reported as 12.1%.
For `CCc1noc(C2CCCCN2C(=O)c2ccn(C3CCCC3)n2)n1` (stereo unspecified), the cytotoxicity at 70.5 h was 31%.
`CN(Cc1cscn1)C1CCN(C(=O)OC(C)(C)C)CC1` showed a cytotoxicity at 70.5 h of 29.5%.
Work on `Cc1ocnc1C(=O)N(C)[C@@H]1CCC[C@@H](N2CCCC2)[C@@H]1O` yielded a cytotoxicity at 70.5 h of 25.2%.
Work on `Fc1cnc(N2CCCC3(CCN(c4ncccn4)C3)C2)nc1` (stereo unspecified) yielded a cytotoxicity at 70.5 h of 13.7%.
For `O=C(CCc1nccs1)N1CCC(N2CCNC2=O)CC1`, the cytotoxicity at 70.5 h was -3.7%.
`CN1CCCCC1CCC(=O)NCCCn1nccc1C1CC1` (stereo unspecified) showed a cytotoxicity at 70.5 h of -11.4%.
`Cc1occc1C(=O)Nc1cc(N2CCNC2=O)ccc1Cl` gave a cytotoxicity at 70.5 h of 6.66%.
For `CCOc1cc(C)nc(N2CCN(C(=O)c3ccc[nH]3)CC2)n1`, the cytotoxicity at 70.5 h was -7.65%.
For `CCC(NC(=O)CNC(=O)OC)c1cc(F)ccc1F` (stereo unspecified), the cytotoxicity at 70.5 h was -2.42%.
Molecule `CCc1cc(NC(=O)c2cccc(OCC(F)(F)F)n2)[nH]n1` has a cytotoxicity at 70.5 h of -2.9%.
`Cn1cc(Br)c(=O)c(NS(=O)(=O)c2ccc3c(c2)CCC3)c1` gave a cytotoxicity at 70.5 h of 2.07%.
In the case of `Cc1cc(-c2ccc(=O)n(C3CCN(S(=O)(=O)N(C)C)CC3)n2)c(C)o1`, the cytotoxicity at 70.5 h is reported as 3.38%.
Molecule `CCOCC1CCN(C(=O)C(c2c(F)cccc2F)N(C)C)CC1` (stereo unspecified) has a cytotoxicity at 70.5 h of 0.534%.
With `c1nc2c(c(C3CC3)n1)CCN(CC1CCOC1)CC2` (stereo unspecified) the cytotoxicity at 70.5 h was -13.3%.
In the case of `Cc1ccccc1CC(=O)N1C[C@@H](O)[C@H](N2CCN(C)CC2)C1`, the cytotoxicity at 70.5 h is reported as 0.191%.
In the case of `Cc1nc[nH]c1CN1C[C@@H]2CC[C@H](C1)N(C(=O)c1cnn(C)c1)C2`, the cytotoxicity at 70.5 h is reported as 7.73%.
Molecule `CC(NC(=O)Nc1ccncc1)c1ccc2c(c1)CC(=O)N2` (stereo unspecified) has a cytotoxicity at 70.5 h of -7.01%.
`O=C1CN(C(=O)c2ccc(F)cc2)CC(O)CN1Cc1cccs1` (stereo unspecified) gave a cytotoxicity at 70.5 h of 1.6%.
In the case of `CCOc1cccc(COC(=O)c2ccc(Cl)cn2)n1`, the cytotoxicity at 70.5 h is reported as -8.76%.
For `O=C(CC1CC1)N[C@@H]1CN(C(=O)c2ccsc2)C[C@@H]2CCCO[C@@H]21`, the cytotoxicity at 70.5 h was -1.55%.
`O=C(c1cnccn1)N1C[C@@H](OCc2cccnc2)[C@H]2OCCC[C@H]21` gave a cytotoxicity at 70.5 h of 8.16%.
Work on `CCc1ocnc1C(=O)Nc1ccc2ccn(CCN(C)C)c2c1` yielded a cytotoxicity at 70.5 h of -13.2%.
For `Cc1cc(Nc2ccc(F)cn2)cc(C2CCN(Cc3ncc[nH]3)C2)n1` (stereo unspecified), the cytotoxicity at 70.5 h was -0.353%.
Work on `CN1CCCC(C(=O)N2CCC(Oc3ccccn3)CC2)C1` (stereo unspecified) yielded a cytotoxicity at 70.5 h of -7.47%.
For `CCc1n[nH]c(C2CN(C(=O)c3ccc4c(c3)CCCC4)CCO2)n1` (stereo unspecified), the cytotoxicity at 70.5 h was -8.34%.
In the case of `CN1CC2(CCN(Cc3cccnc3)CC2)c2cc(F)ccc21`, the cytotoxicity at 70.5 h is reported as -3.7%.
Molecule `CC(=O)Nc1nc2c(s1)C(C)(C)Nc1ccccc1S2` has a cytotoxicity at 70.5 h of -2.23%.
`Cc1cnc2[nH]c(C(F)(F)F)c(CN3CCOCC3)c2c1` showed a cytotoxicity at 70.5 h of 21.8%.
In the case of `Cc1cccc(CN2CCc3nnc(CO)n3CC2)n1`, the cytotoxicity at 70.5 h is reported as -3.1%.
`CN(C)c1cncc(C2CCN(CC(N)=O)CC2)n1` gave a cytotoxicity at 70.5 h of -0.457%.
For `CNc1ncccc1CN1CCCCC1c1cc(C)n2ccnc2n1` (stereo unspecified), the cytotoxicity at 70.5 h was -5.95%.
In the case of `O=C(NCc1nnc2n1CCC2)N1CCc2sccc2C1`, the cytotoxicity at 70.5 h is reported as -6.3%.
`CC(C)N1CCOC[C@H]1c1nc(C(C)(C)C)c[nH]1` showed a cytotoxicity at 70.5 h of 0.329%.
Molecule `CCOC(=O)CC1CCCCN1C(=O)c1cccc2ccnn12` (stereo unspecified) has a cytotoxicity at 70.5 h of -6.11%.
Molecule `COc1ccc(N2Cc3nc(=O)n(C(C)C)n3C2=O)cc1` has a cytotoxicity at 70.5 h of -15.6%.
`O=C(Nc1ccc(CCN2CCC(O)CC2)cc1)C1CCCCC1` showed a cytotoxicity at 70.5 h of -2.92%.
`O=C(Cc1c(F)cccc1Cl)Nc1cc(N2CCCC2)ncn1` gave a cytotoxicity at 70.5 h of -2.78%.
For `CCn1cc(Cl)c(C(=O)NCCOC)n1`, the cytotoxicity at 70.5 h was -0.484%.
Molecule `CCc1ncnc2c1CCN(Cc1ccc(OC)cc1)CC2` has a cytotoxicity at 70.5 h of -8.97%.
`O=C(Nc1cccnc1)[C@@H]1C[C@H]2OCC[C@H]2N(Cc2nccs2)C1` showed a cytotoxicity at 70.5 h of -6.06%.
For `CC(C(=O)N(Cc1ccccc1)CC(F)(F)F)S(C)(=O)=O` (stereo unspecified), the cytotoxicity at 70.5 h was -5.47%.
Molecule `O=C(c1cccc(F)c1)N1C[C@H]2CN(Cc3ccccn3)C[C@H]2C1` has a cytotoxicity at 70.5 h of -16%.
Work on `Cc1cc(C(=O)N2CC[C@](C)(O)[C@H](C)C2)c(C)n1C` yielded a cytotoxicity at 70.5 h of 18.2%.
For `Cc1nc(CN2CCN(C)C(=O)C23CCN(CC2CCCC2)CC3)cs1`, the cytotoxicity at 70.5 h was -9.21%.
In the case of `COCCCN1Cc2cccc(NC(=O)c3cc(F)ccc3F)c2C1`, the cytotoxicity at 70.5 h is reported as -9.4%.
With `Cc1ncnc2c1CCN(C(=O)c1ccncc1F)CC2` the cytotoxicity at 70.5 h was -8.13%.
For `C[C@H](c1ccc(F)cc1)n1c(C2CCC2)n[nH]c1=O`, the cytotoxicity at 70.5 h was -12.6%.
In the case of `CN1CCCN(Cc2nc(Cc3ccccc3)n[nH]2)CC1`, the cytotoxicity at 70.5 h is reported as -3.87%.
With `CN(C(=O)CNc1ccc(C#N)cc1)C1CCCCC1` the cytotoxicity at 70.5 h was -3.87%.
Work on `O=C(CN1CCOCC1)N(c1ccccc1)c1ccccc1` yielded a cytotoxicity at 70.5 h of -11.2%.
Molecule `COc1ccc(CCN2CCC(N3CCN(C)C3=O)CC2)cc1` has a cytotoxicity at 70.5 h of -8.36%.
With `NC(=O)CN(C(=O)Cc1cccc(C(F)(F)F)c1)C1CCCC1` the cytotoxicity at 70.5 h was -2.84%.
`CC(C)N(C)Cc1cc(=O)n2c(n1)CN(C(=O)c1ccnnc1)CCC2` showed a cytotoxicity at 70.5 h of -2.81%.
In the case of `Cc1cnn(CC2CN(CCCc3nc4ccccc4o3)CCO2)c1` (stereo unspecified), the cytotoxicity at 70.5 h is reported as -0.695%.
Work on `CO[C@H]1CN(CC2CC2)[C@@H]2CCCO[C@H]12` yielded a cytotoxicity at 70.5 h of -9.81%.
`Cc1ccc(F)c(S(=O)(=O)Nc2cn(C)cc(Br)c2=O)c1` showed a cytotoxicity at 70.5 h of -1.44%.
Work on `CCc1nc(CNc2ccc(F)cc2I)no1` yielded a cytotoxicity at 70.5 h of 2.16%.
For `CC(C)(C)c1nc(C(C)(C)NC(=O)C2CC(=O)N(CC3CC3)C2)no1` (stereo unspecified), the cytotoxicity at 70.5 h was -1.01%.
In the case of `COCC(=O)N1C[C@H](N(C)Cc2cncnc2)[C@H]2OCCC[C@H]21`, the cytotoxicity at 70.5 h is reported as -8.78%.
In the case of `COc1ccc(NC(=O)CCC2CCCN(Cc3ncon3)C2)c(C)c1` (stereo unspecified), the cytotoxicity at 70.5 h is reported as -4.69%.
For `O=C(C1CCOC1)N1CCc2ncnc(C3CC3)c2CC1` (stereo unspecified), the cytotoxicity at 70.5 h was 0.686%.
Molecule `O=C(C1CCOC1)N1CCc2ncnc(-c3cccnc3)c2CC1` (stereo unspecified) has a cytotoxicity at 70.5 h of 15.9%.
In the case of `O=C(NCCCN1CCN(c2ncccn2)CC1)Nc1ccccn1`, the cytotoxicity at 70.5 h is reported as -2.48%.
Work on `CCN(CC)S(=O)(=O)NCc1ccc(-c2ccc(C(N)=O)c(C)n2)cc1` yielded a cytotoxicity at 70.5 h of -12.3%.
`Cc1oncc1C(=O)N1CC2CC1(C(=O)N1CCCC1)C2` showed a cytotoxicity at 70.5 h of 8.06%.
Molecule `COC(=O)N1CC2=CC(C)(C)COc3ccc(OC)c(c32)C1` has a cytotoxicity at 70.5 h of 1.21%.
`Cc1oc(C)c(C(=O)NCc2cccc(NC(=O)CN(C)C)c2)c1C` gave a cytotoxicity at 70.5 h of -8.3%.
For `O=S(=O)(c1cc(F)cc(F)c1)N1CCC(Oc2ccc(Cl)cn2)CC1`, the cytotoxicity at 70.5 h was 2%.
For `Cc1cc(C(=O)N2CCc3ncc(CN4CCOCC4)n3CC2)no1`, the cytotoxicity at 70.5 h was 28.9%.
With `OC(CNCCn1cccn1)c1ccc(Br)cc1` (stereo unspecified) the cytotoxicity at 70.5 h was 15.8%.
Molecule `CC1CCC2(CC1)NC(=O)c1cc(Br)ccc1-n1nnnc12` (stereo unspecified) has a cytotoxicity at 70.5 h of -4.82%.
For `CC(C)[C@@H]1CN(Cc2ccccc2C#N)C[C@H]1N(C)C`, the cytotoxicity at 70.5 h was 31.1%.
`CC(C)c1nccn1C1CCCN(C(=O)c2cccc3c2OCO3)C1` (stereo unspecified) showed a cytotoxicity at 70.5 h of 8.22%.
With `CCOCCNC(=O)c1cccc(Cn2nc(C)cc2C)c1` the cytotoxicity at 70.5 h was -7.21%.
For `Cc1nc(CNCC2CNc3ccnn3C2)cs1` (stereo unspecified), the cytotoxicity at 70.5 h was -7.55%.
`CC(C)c1cc(C(=O)N2CCc3ccccc3C2C(=O)O)nn1C` (stereo unspecified) gave a cytotoxicity at 70.5 h of -1.42%.
Work on `CNC(=O)CN1CCO[C@H]2CN(CC3CCOCC3)C[C@H]21` yielded a cytotoxicity at 70.5 h of -2.33%.
With `c1cc(CNCc2ccnc(N3CCCC3)c2)c2c(c1)OCO2` the cytotoxicity at 70.5 h was -6.8%.

From ChEMBL document CHEMBL3507680, “University of Dundee, Gates Library screen for HepG2 cell viability”
